Experimental data from patent US8470804B2, “11a, 12-derivatives of tetracycline compounds” (Paratek Pharmaceuticals, Inc., priority 2005, dated 2013).

Legend:
EAE induced mice = assay: In vivo experimental autoimmune encephalomyelitis (EAE) murine model; set-up: species or system C57BL/6 female mice; conditions: IP injections 50 mg/kg each day from day 10 (onset of disease); minocycline control at same dose
Description: In this example, a mouse model was used to determine the ability of the tetracycline compounds to treat demyelination related diseases. Other models which can be used are described in Brundula V. et al. Brain 2002 June; 125 (Pt 6): 1297-308 and Popovic N. et al. Ann Neural. 2002 February; 51(2):215-23.
To induce EAE, 6 week old C57BL/6 female mice were injected subcutaneously with 200 ug of myelin oligodendrocyte glycoprotein peptide (MOG 35-55) emulsified in 200 μL of complete Freund's adjuvant containing an additional 4 mg/mL of heat killed M. tuberculosis. Mice were additionally injected intravenously (tail vein) with 150 ng of lyophilized pertussis toxin resuspended in 150 μL PBS at time 0 and again 48 hours later. In this model, the mice developed progressive posterior to anterior advancing paralysis with symptoms first appearing at 10-12 days and progressing to severe paralysis by approximately 21 days. Severity of EAE was scored daily according to the following criteria: 0, healthy; 1, limp tail; 2, partial paralysis of one or two hind limbs; 3, complete paralysis of the hind limbs; 4, complete hind limb paralysis and forelimb paraparesis; 5, moribund. All test experiments included control groups of EAE induced mice treated with vehicle only or treated with minocycline, with 10 mice per group. […]

common bacteria = assay: In vitro minimum inhibitory concentration (MIC) assay; type: cell-based, E. coli, S. aureus, Enterococcus sp.; conditions: broth microdilution in CAMHB, 35° C., approximately 18 hours
Description: The following assay was used to determine the efficacy of tetracycline compounds against common bacteria. 2 mg of each compound were dissolved in 100 μl of DMSO. […] The tetracycline compound solutions were diluted to 50 μl, volumes, with a test compound concentration of 0.098 μg/ml. Optical density (OD) determinations were made from fresh log-phase broth cultures of the test strains. Dilutions were made to achieve a final cell density of 1×10^6 CFU/ml. At OD=1, cell densities for different genera were approximately: [table] 50 μl of the cell suspensions were added to each well of microtiter plates. The final cell density should be approximately 5×10^5 CFU/ml. These plates are incubated at 35° C. in an ambient air incubator for approximately 18 hours. The plates are read with a microplate reader and are visually inspected when necessary. The MIC was defined as the lowest concentration of the tetracycline compound that inhibits growth.

antibacterial activity (MIC) (common bacteria) | Compound | activity in EAE model (severity of EAE scored daily 0-5) compared with minocycline (EAE induced mice)
 | CNC1C2C(=O)c3c(O)cccc3[C@H](C)[C@H]2[C@H](O)[C@H]2[C@H](N(C)C)C(O)=C(C(N)=O)C(=O)[C@@]12O (stereo partly drawn) [12-methylamino-12-dehydrodoxycycline, (4S,4aR,5S,5aR,6R,12aS)-4-Dimethylamino-3,5,10,12a-tetrahydroxy-6-methyl-12-methylamino-1,11-dioxo-1,4,4a,5,5a,6,11,11a,12,12a-decahydro-naphthacene-2-carboxylic acid amide] | activity similar to or better than minocycline
low antibacterial activity | C[C@H]1c2cccc(O)c2C(=O)C2=C[C@]3(O)C(=O)C(C(N)=O)=C(O)[C@@H](N(C)C)[C@@H]3[C@@H](O)[C@@H]21 [12-dehydrodoxycycline, (4S,4aR,5S,5aR,6R,12aR)-4-Dimethylamino-3,5,10,12a-tetrahydroxy-6-methyl-1,11-dioxo-1,4,4a,5,5a,6,11,12a-octahydro-naphthacene-2-carboxylic acid amide] | activity similar to or better than minocycline
low antibacterial activity | C[C@H]1c2ccc(N(C)C)c(O)c2C(=O)C2=C[C@]3(O)C(=O)C(C(N)=O)=C(O)[C@@H](N(C)C)[C@@H]3[C@@H](O)[C@@H]21 [9-bis-dimethylamino-12-dehydrodoxycline, (4S,4aR,5S,5aR,6R,12aR)-4,9-Bis-dimethylamino-3,5,10,12a-tetrahydroxy-6-methyl-1,11-dioxo-1,4,4a,5,5a,6,11,12a-octahydro-naphthacene-2-carboxylic acid amide] | 
low antibacterial activity | C[C@H]1c2ccc(N)c(O)c2C(=O)C2=C[C@]3(O)C(=O)C(C(N)=O)=C(O)[C@@H](N(C)C)[C@@H]3[C@@H](O)[C@@H]21 [9-Amino-12-dehydrodoxycline, (4S,4aR,5S,5aR,6R,12aR)-9-Amino-4-dimethylamino-3,5,10,12a-tetrahydroxy-6-methyl-1,11-dioxo-1,4,4a,5,5a,6,11,12a-octahydro-naphthacene-2-carboxylic acid amide] | 
